Data taken from patent US7179832B2, “Glycogen synthase kinase 3β inhibitor, composition and process for the preparation thereof” (Crystalgenomics, Inc., priority 2003, dated 2007).

molecular target: GSK-3β (Homo sapiens, UniProt P49841); test: Assay for GSK-3β inhibiting activity (32P-ATP, phospho-CREB peptide substrate, filter paper, CPM); type: biochemical; conditions: GSK-3β inhibiting activity; 100 nM GSK-3β protein, 100 μM phospho-CREB peptide, 100 μM ATP, 30° C. for 1 hour; read-out: IC50
Sequence (P49841 whole entry): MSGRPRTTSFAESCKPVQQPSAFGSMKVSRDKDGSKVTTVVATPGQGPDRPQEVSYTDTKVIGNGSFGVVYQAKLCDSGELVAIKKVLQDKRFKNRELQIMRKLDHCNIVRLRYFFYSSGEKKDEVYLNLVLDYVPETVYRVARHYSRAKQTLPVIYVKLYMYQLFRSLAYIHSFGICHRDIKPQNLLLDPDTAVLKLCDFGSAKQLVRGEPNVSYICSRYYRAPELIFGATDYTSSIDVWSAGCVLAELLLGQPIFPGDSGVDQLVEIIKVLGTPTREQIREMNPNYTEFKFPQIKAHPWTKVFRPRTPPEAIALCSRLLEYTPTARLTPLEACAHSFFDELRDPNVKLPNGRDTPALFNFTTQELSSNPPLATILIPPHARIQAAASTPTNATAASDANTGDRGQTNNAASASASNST

SMILES	IC50 [nM]
Cc1cn(CCCNC(=O)c2ccc(O)c3[nH]c(-c4ccc(Cl)cc4)nc23)cn1 [Compound 173]	100
O=C(NCCCn1cnc(Cl)c1Cl)c1ccc(O)c2[nH]c(-c3ccc(Cl)cc3)nc12 [Compound 174]	40
CCCCNC(=O)c1ccc(O)c2[nH]c(-c3ccc(Cl)cc3Cl)nc12 [Compound 176]	450
O=C(NCCCN1CCCC1=O)c1ccc(O)c2[nH]c(-c3ccc(Cl)cc3Cl)nc12 [Compound 177]	200
O=C(NCCCn1ccnc1)c1ccc(O)c2[nH]c(-c3ccc(Cl)cc3Cl)nc12 [Compound 178]	40
O=C(NCCCN1CCOCC1)c1ccc(O)c2[nH]c(-c3ccc(Cl)cc3Cl)nc12 [Compound 179]	> 1000
O=C(NCCCn1ccnc1-c1ccccc1)c1ccc(O)c2[nH]c(-c3ccc(Cl)cc3Cl)nc12 [Compound 180]	210
Cc1nccn1CCCNC(=O)c1ccc(O)c2[nH]c(-c3ccc(Cl)cc3Cl)nc12 [Compound 183]	60
CC(C)c1nccn1CCCNC(=O)c1ccc(O)c2[nH]c(-c3ccc(Cl)cc3Cl)nc12 [Compound 184]	150
O=C(NCCCn1ccnc1)c1ccc(O)c2[nH]c(-c3ccc(F)cc3)nc12 [Compound 185]	> 1000
CC(C)c1nccn1CCCNC(=O)c1ccc(O)c2[nH]c(-c3ccc(F)cc3)nc12 [Compound 186]	50
CCc1nccn1CCCNC(=O)c1ccc(O)c2[nH]c(-c3ccc(F)cc3)nc12 [Compound 189]	> 1000
CC(C)c1nccn1CCCNC(=O)c1ccc(O)c2[nH]c(-c3ccc(F)cc3F)nc12 [Compound 191]	90
Cc1nccn1CCCNC(=O)c1ccc(O)c2[nH]c(-c3ccc(F)cc3Cl)nc12 [Compound 201]	70
O=C(NCCCn1cnc(Cl)c1Cl)c1ccc(O)c2[nH]c(-c3ccc(NCCN4CCOCC4)cc3)nc12 [Compound 204, 7-hydroxy-2-[4-(2-morpholin-4-yl-ethylamino)-phenyl]-1H-benzoimidazole-4-carboxylic acid [3-(4,5-dichloro-imidazol-1-yl)-propyl]-amide]	> 5000

Stronger by IC50, values ahead:

IC50 [nM]	SMILES
30	Cc1cn(CCCNC(=O)c2ccc(O)c3[nH]c(-c4ccc(Cl)cc4Cl)nc23)cn1 [Compound 181]
30	Cc1nccn1CCCNC(=O)c1ccc(O)c2[nH]c(-c3ccc(F)cc3F)nc12 [Compound 195]
20	Cc1cn(CCCNC(=O)c2ccc(O)c3[nH]c(-c4ccc(F)cc4F)nc23)cn1 [Compound 193]
20	CCc1nccn1CCCNC(=O)c1ccc(O)c2[nH]c(-c3ccc(F)cc3F)nc12 [Compound 196]
20	O=C(NCCCn1ccnc1)c1ccc(O)c2[nH]c(-c3ccc(F)cc3Cl)nc12 [Compound 198]
10	Cc1cn(CCCNC(=O)c2ccc(O)c3[nH]c(-c4ccc(F)cc4)nc23)cn1 [Compound 187]
10	Cc1cn(CCCNC(=O)c2ccc(O)c3[nH]c(-c4ccc(F)cc4Cl)nc23)cn1 [Compound 199]
9	Cc1cn(CCCNC(=O)c2ccc(O)c3[nH]c(-c4ccc(F)c(Cl)c4)nc23)cn1 [Compound 202]
8	O=C(NCCCn1cnc(Cl)c1Cl)c1ccc(O)c2nc(-c3ccc(Cl)cc3Cl)[nH]c12 [Compound 182]
8	O=C(NCCCn1ccnc1)c1ccc(O)c2[nH]c(-c3ccc(F)cc3F)nc12 [Compound 192]
6	O=C(NCCCn1cnc(Cl)c1Cl)c1ccc(O)c2[nH]c(-c3ccc(F)cc3)nc12 [Compound 190]
4	O=C(NCCCn1cnc(Cl)c1Cl)c1ccc(O)c2[nH]c(-c3ccc(F)cc3F)nc12 [Compound 194]
3	O=C(NCCCn1cnc(Cl)c1Cl)c1ccc(O)c2[nH]c(-c3ccc(F)cc3F)nc12 [Compound 197]
3	O=C(NCCCn1ccnc1)c1ccc(O)c2nc(-c3ccc(F)c(Cl)c3)[nH]c12 [Compound 203]
2	Cc1nccn1CCCNC(=O)c1ccc(O)c2[nH]c(-c3ccc(F)cc3)nc12 [Compound 188]
2	O=C(NCCCn1cnc(Cl)c1Cl)c1ccc(O)c2[nH]c(-c3ccc(F)cc3Cl)nc12 [Compound 200]
